Measurements taken from PMC11882969 (Nature Communications, 2025).
Where “and” joins values, the source holds several entries; their conditions need not be identical. Identical values can stand only once.

Tests used:
Assay type in all cases: cell-based
[1] = target: panel of 320 non-olfactory GPCRs (Homo sapiens, UniProt P25106)
[2] = target: panel of 320 non-olfactory GPCRs (Homo sapiens, UniProt P50052)
[3] = target: panel of 320 non-olfactory GPCRs (Homo sapiens, UniProt P30542)
[4] = target: panel of 320 non-olfactory GPCRs (Homo sapiens, UniProt Q13324)
[5] = target: panel of 320 non-olfactory GPCRs (Homo sapiens, UniProt Q9NQS5)
[6] = target: panel of 320 non-olfactory GPCRs (Homo sapiens, UniProt Q8TDV2)
[7] = target: panel of 320 non-olfactory GPCRs (Homo sapiens, UniProt Q86Y34)
[8] = target: panel of 320 non-olfactory GPCRs (Homo sapiens, UniProt Q9NYM4)
[9] = target: panel of 320 non-olfactory GPCRs (Homo sapiens, UniProt P25089)
[10] = target: panel of 320 non-olfactory GPCRs (Homo sapiens, UniProt Q8N6U8)
[11] = target: panel of 320 non-olfactory GPCRs (Homo sapiens, UniProt P30550)
[12] = target: panel of 320 non-olfactory GPCRs (Homo sapiens, UniProt Q99527)
[13] = target: panel of 320 non-olfactory GPCRs (Homo sapiens, UniProt P21918)
[14] = target: panel of 320 non-olfactory GPCRs (Homo sapiens, UniProt Q9HBW9)
[15] = target: panel of 320 non-olfactory GPCRs (Homo sapiens, UniProt Q99679)
[16] = target: panel of 320 non-olfactory GPCRs (Homo sapiens, UniProt P35368)
[17] = target: panel of 320 non-olfactory GPCRs (Homo sapiens, UniProt Q6NV75)
[18] = target: panel of 320 non-olfactory GPCRs (Homo sapiens, UniProt P08173)
[19] = target: panel of 320 non-olfactory GPCRs (Homo sapiens, UniProt Q9HBW0)
[20] = target: panel of 320 non-olfactory GPCRs (Homo sapiens, UniProt Q16602)
panel of 320 non-olfactory GPCRs (Homo sapiens, UniProt Q16602), sequence (Q16602 23-461): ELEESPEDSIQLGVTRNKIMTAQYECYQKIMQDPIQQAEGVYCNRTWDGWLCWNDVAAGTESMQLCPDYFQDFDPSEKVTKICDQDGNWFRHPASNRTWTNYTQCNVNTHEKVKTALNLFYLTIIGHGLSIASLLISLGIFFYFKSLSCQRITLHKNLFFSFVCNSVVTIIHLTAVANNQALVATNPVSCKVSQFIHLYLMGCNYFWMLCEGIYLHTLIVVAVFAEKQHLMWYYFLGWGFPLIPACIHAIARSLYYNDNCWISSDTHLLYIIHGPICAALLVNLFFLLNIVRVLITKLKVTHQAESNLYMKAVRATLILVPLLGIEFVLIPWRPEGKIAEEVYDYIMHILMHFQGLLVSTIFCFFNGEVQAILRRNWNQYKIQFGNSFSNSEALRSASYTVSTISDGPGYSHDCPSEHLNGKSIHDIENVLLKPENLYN

panel of 320 non-olfactory GPCRs (Homo sapiens, UniProt Q9NYM4), sequence (Q9NYM4 17-423): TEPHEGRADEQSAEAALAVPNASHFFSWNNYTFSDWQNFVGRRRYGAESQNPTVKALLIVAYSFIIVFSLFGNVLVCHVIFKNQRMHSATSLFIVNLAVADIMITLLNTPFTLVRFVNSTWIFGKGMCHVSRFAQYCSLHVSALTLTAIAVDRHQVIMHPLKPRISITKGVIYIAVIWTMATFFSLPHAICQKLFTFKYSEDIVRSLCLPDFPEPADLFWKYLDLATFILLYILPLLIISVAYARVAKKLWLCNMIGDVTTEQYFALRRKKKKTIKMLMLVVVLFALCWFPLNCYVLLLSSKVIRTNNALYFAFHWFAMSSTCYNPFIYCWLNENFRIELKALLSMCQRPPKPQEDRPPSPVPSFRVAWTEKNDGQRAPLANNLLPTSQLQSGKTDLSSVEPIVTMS
panel of 320 non-olfactory GPCRs (Homo sapiens, UniProt P08173), sequence (P08173 whole entry): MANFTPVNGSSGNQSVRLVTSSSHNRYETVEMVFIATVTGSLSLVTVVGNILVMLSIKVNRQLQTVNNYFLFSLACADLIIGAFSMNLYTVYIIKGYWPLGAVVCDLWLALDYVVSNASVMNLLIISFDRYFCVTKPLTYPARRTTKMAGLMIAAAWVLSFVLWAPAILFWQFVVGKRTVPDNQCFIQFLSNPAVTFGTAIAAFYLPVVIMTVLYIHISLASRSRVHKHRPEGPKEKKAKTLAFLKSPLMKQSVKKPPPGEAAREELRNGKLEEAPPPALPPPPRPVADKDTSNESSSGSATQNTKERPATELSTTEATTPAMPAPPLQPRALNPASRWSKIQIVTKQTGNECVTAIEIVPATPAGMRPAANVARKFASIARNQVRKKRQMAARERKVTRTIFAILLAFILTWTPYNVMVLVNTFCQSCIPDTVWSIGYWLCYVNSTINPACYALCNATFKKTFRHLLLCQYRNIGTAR
panel of 320 non-olfactory GPCRs (Homo sapiens, UniProt Q99679), sequence (Q99679 whole entry): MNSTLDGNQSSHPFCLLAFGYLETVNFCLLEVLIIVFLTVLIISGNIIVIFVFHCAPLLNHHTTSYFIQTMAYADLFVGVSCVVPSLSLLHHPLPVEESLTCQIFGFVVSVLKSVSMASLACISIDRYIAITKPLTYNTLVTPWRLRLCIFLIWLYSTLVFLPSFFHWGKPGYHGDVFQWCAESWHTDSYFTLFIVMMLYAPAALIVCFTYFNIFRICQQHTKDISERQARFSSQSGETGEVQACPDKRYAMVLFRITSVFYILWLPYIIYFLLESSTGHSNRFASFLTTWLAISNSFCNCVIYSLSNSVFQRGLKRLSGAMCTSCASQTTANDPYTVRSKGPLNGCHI
panel of 320 non-olfactory GPCRs (Homo sapiens, UniProt P50052), sequence (P50052 whole entry): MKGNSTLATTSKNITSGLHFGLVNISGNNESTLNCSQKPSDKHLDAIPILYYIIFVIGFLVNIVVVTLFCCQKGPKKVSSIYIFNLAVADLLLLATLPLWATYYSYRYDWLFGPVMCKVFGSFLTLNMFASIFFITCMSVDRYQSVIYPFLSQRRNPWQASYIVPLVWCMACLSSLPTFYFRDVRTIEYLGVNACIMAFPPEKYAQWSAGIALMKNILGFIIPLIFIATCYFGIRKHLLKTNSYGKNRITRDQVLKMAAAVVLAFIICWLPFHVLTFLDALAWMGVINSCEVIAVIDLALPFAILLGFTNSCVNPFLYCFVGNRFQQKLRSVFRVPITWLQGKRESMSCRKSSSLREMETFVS
panel of 320 non-olfactory GPCRs (Homo sapiens, UniProt Q9NQS5), sequence (Q9NQS5 whole entry): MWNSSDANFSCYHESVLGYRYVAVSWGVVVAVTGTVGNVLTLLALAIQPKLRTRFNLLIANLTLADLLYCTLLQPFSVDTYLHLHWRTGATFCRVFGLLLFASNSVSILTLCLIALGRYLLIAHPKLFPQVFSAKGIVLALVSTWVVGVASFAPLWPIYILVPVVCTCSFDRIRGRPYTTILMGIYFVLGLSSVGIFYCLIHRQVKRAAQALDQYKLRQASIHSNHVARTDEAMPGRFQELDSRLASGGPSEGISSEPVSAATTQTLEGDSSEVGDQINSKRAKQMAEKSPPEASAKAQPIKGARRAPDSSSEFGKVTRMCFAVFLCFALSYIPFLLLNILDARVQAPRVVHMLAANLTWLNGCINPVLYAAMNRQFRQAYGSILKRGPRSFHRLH
panel of 320 non-olfactory GPCRs (Homo sapiens, UniProt Q9HBW0), sequence (Q9HBW0 whole entry): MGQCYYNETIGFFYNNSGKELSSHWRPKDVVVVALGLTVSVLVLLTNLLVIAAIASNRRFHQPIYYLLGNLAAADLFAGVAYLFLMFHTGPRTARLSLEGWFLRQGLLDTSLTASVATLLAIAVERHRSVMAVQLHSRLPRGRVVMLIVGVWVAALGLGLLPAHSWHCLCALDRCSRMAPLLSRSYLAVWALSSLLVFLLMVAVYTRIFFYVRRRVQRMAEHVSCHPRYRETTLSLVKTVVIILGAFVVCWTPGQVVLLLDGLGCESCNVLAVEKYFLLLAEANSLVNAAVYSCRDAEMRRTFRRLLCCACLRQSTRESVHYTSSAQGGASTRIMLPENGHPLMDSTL
panel of 320 non-olfactory GPCRs (Homo sapiens, UniProt P25106), sequence (P25106 whole entry): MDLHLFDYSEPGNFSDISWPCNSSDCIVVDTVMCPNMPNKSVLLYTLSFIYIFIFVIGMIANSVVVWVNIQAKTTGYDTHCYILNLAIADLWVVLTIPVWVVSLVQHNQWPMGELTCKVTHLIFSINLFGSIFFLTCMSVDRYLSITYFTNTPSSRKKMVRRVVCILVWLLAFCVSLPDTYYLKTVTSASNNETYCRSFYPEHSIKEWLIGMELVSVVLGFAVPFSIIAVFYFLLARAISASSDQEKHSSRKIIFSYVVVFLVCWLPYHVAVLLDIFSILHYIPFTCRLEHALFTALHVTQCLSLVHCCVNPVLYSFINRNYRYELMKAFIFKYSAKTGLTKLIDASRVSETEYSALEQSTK
panel of 320 non-olfactory GPCRs (Homo sapiens, UniProt Q99527), sequence (Q99527 whole entry): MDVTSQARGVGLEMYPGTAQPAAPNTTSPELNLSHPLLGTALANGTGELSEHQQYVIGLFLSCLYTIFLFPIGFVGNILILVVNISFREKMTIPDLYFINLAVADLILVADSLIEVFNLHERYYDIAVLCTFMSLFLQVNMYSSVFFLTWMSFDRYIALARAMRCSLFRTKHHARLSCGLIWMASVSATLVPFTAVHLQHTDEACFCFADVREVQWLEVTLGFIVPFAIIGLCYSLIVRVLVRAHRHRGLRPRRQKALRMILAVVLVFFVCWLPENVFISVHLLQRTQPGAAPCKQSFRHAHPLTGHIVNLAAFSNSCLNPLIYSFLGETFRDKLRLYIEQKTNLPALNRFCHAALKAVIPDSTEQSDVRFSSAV
panel of 320 non-olfactory GPCRs (Homo sapiens, UniProt P30542), sequence (P30542 whole entry): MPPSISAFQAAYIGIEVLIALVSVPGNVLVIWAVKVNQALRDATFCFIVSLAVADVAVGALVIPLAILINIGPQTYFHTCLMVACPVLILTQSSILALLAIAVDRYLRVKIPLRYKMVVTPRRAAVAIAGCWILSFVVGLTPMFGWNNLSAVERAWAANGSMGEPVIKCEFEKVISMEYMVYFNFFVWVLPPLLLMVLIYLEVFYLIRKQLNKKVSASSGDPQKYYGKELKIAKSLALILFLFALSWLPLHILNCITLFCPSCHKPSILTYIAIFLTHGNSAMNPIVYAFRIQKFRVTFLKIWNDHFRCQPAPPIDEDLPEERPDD
panel of 320 non-olfactory GPCRs (Homo sapiens, UniProt P21918), sequence (P21918 whole entry): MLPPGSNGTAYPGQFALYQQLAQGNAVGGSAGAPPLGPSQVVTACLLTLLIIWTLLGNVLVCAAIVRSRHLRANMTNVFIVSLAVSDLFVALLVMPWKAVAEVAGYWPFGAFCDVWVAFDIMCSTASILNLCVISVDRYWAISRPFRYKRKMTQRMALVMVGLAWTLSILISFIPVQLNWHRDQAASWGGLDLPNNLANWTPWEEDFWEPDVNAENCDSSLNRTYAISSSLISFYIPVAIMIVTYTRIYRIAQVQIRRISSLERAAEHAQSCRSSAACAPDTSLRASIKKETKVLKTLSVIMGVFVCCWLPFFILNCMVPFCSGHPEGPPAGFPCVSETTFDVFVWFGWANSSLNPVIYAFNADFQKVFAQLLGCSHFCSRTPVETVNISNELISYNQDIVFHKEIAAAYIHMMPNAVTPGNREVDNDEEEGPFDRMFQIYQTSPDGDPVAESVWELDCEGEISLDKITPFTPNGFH
panel of 320 non-olfactory GPCRs (Homo sapiens, UniProt P25089), sequence (P25089 whole entry): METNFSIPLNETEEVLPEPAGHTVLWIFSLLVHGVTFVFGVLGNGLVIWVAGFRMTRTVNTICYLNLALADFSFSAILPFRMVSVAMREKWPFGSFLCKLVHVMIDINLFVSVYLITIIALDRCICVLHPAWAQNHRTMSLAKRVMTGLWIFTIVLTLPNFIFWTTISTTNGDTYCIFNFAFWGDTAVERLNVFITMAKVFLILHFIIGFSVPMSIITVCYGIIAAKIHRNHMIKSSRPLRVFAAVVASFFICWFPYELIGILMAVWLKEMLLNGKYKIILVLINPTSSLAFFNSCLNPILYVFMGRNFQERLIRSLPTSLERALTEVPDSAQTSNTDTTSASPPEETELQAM

For `Cc1cc(C(=O)NC(C)(c2ccco2)c2ccco2)nn1-c1cccc(C(F)(F)F)c1` [‘4936], the “Fold of Basal RLU” value [1] was 3.3 fold and 2.7 fold and 2.1 fold and 4 fold, the “Fold of Basal RLU” value [2] was 1.1 fold and 1.2 fold and 0.9 fold and the “Fold of Basal RLU” value [3] was 6.4 fold and 5.8 fold and 6.3 fold and 7.4 fold. The “Fold of Basal RLU” value [4] was 0.6 and 0.7, the “Fold of Basal RLU” value [5] was 1 fold and 0.9 fold and 1.6 fold and the “Fold of Basal RLU” value [6] was 1 and 0.6 and 1.2. For the same compound, the “Fold of Basal RLU” value [7] was 2.2 and 2.3 and 1.6 and 3.1, the “Fold of Basal RLU” value [8] was 0.8 fold and 0.9 fold and 0.6 fold and the “Fold of Basal RLU” value [9] was 1.2 fold and 1.3 fold and 1.8 fold. For the same compound, the “Fold of Basal RLU” value [10] was 1.1 fold and 1.2 fold, the “Fold of Basal RLU” value [11] was 0.8 fold and 0.6 fold and the “Fold of Basal RLU” value [12] was 1.9 and 1.3 and 1.5 and 1.4. The “Fold of Basal RLU” value [13] was 1.1 and 1.3 and 1.4, the “Fold of Basal RLU” value [14] was 1.6 fold and 1.5 fold and 1.1 fold and the “Fold of Basal RLU” value [15] was 2.5 and 1.9 and 1.6 and 2.2. The “Fold of Basal RLU” value [16] was 0.9 fold and 0.8 fold, the “Fold of Basal RLU” value [17] was 1.7 fold and 1.2 fold and 1.4 fold and 2.1 fold and the “Fold of Basal RLU” value [18] was 0.7 and 1.1 and 1 and 0.6. For the same compound, the “Fold of Basal RLU” value [19] was 0.7 and 0.8 and 1 and 1.2 and the “Fold of Basal RLU” value [20] was 1 and 0.6 and 0.5.
